Experimental data from PubChem BioAssay AID1918949 (Molecular Pharmacology Branch, DTP, NCI, 2023).

Test system: K24384-001-R-PDC complex spheroid viability
Assay: Anticancer human tumor K24384-001-R-PDC patient-derived pancreatic adenocarcinoma cell line growth inhibition
Details: for IC50: curve of first compound; for viability, T/C: stronger effect = lower value
Summary of the method: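 Drug combinations with the LSD1 inhibitor iadademstat tested on tumor cells co-cultured as spheroids with endothelial cells and mesenchymal stem cells. Concentrations descended in half-log increments from clinical Cmax or 10 microM.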

[1] = second compound 0.1 µM, first compound 0.00949 µM
[2] = second compound 0.1 µM, first compound 0.03 µM
[3] = second compound 0.1 µM, first compound 0.0949 µM
[4] = second compound 0.1 µM, first compound 0.3 µM
[5] = second compound 0.1 µM, first compound 0.949 µM
[6] = second compound 0.1 µM, first compound 3 µM
[7] = second compound 0.316 µM, first compound 0.00949 µM
[8] = second compound 0.316 µM, first compound 0.03 µM
[9] = second compound 0.316 µM, first compound 0.0949 µM
[10] = second compound 0.316 µM, first compound 0.3 µM
[11] = second compound 0.316 µM, first compound 0.949 µM
[12] = second compound 0.316 µM, first compound 3 µM
[13] = second compound 1 µM, first compound 0.00949 µM
[14] = second compound 1 µM, first compound 0.03 µM
[15] = second compound 1 µM, first compound 0.0949 µM
[16] = second compound 1 µM, first compound 0.3 µM
[17] = second compound 1 µM, first compound 0.949 µM
[18] = second compound 1 µM, first compound 3 µM
[19] = second compound 3.16 µM, first compound 0.00949 µM
[20] = second compound 3.16 µM, first compound 0.03 µM
[21] = second compound 3.16 µM, first compound 0.0949 µM
[22] = second compound 3.16 µM, first compound 0.3 µM
[23] = second compound 3.16 µM, first compound 0.949 µM
[24] = second compound 3.16 µM, first compound 3 µM
[25] = second compound 10 µM, first compound 0.00949 µM
[26] = second compound 10 µM, first compound 0.03 µM
[27] = second compound 10 µM, first compound 0.0949 µM
[28] = second compound 10 µM, first compound 0.3 µM
[29] = second compound 10 µM, first compound 0.949 µM
[30] = second compound 10 µM, first compound 3 µM
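Also: spheroids exposed to agents for seven days before luminescence viability reading.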
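For viability, T/C in this document: 100% = DMSO vehicle control viability.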

Cn1ncnc1C1c2n[nH]c(=O)c3cc(F)cc(c23)NC1c1ccc(F)cc1 (stereo not given) + NC1CCC(NC2CC2c2ccccc2)CC1
IC50 (second compound 0.1 µM): > 100 nM | IC50 (second compound 0.316 µM): > 100 nM | IC50 (second compound 1 µM): > 100 nM | IC50 (second compound 3.16 µM): > 100 nM | IC50 (second compound 10 µM): > 100 nM | viability, T/C (second compound 0.1 µM, first compound 0.000316 µM): 92.4% | viability, T/C (second compound 0.1 µM, first compound 0.001 µM): 115% | viability, T/C (second compound 0.1 µM, first compound 0.00316 µM): 81.7% | viability, T/C (second compound 0.1 µM, first compound 0.01 µM): 88.6% | viability, T/C (second compound 0.1 µM, first compound 0.0316 µM): 80% | viability, T/C (second compound 0.1 µM, first compound 0.1 µM): 73.7% | viability, T/C (second compound 0.316 µM, first compound 0.000316 µM): 96.5% | viability, T/C (second compound 0.316 µM, first compound 0.001 µM): 92.8% | viability, T/C (second compound 0.316 µM, first compound 0.00316 µM): 104% | viability, T/C (second compound 0.316 µM, first compound 0.01 µM): 93.5% | viability, T/C (second compound 0.316 µM, first compound 0.0316 µM): 104% | viability, T/C (second compound 0.316 µM, first compound 0.1 µM): 72.4% | viability, T/C (second compound 1 µM, first compound 0.000316 µM): 104% | viability, T/C (second compound 1 µM, first compound 0.001 µM): 100% | viability, T/C (second compound 1 µM, first compound 0.00316 µM): 89.5% | viability, T/C (second compound 1 µM, first compound 0.01 µM): 88.7% | viability, T/C (second compound 1 µM, first compound 0.0316 µM): 84.8% | viability, T/C (second compound 1 µM, first compound 0.1 µM): 70.2% | viability, T/C (second compound 3.16 µM, first compound 0.000316 µM): 92.9% | viability, T/C (second compound 3.16 µM, first compound 0.001 µM): 95.2% | viability, T/C (second compound 3.16 µM, first compound 0.00316 µM): 94.6% | viability, T/C (second compound 3.16 µM, first compound 0.01 µM): 98.5% | viability, T/C (second compound 3.16 µM, first compound 0.0316 µM): 98.6% | viability, T/C (second compound 3.16 µM, first compound 0.1 µM): 82.1% | viability, T/C (second compound 10 µM, first compound 0.000316 µM): 85.6% | viability, T/C (second compound 10 µM, first compound 0.001 µM): 105% | viability, T/C (second compound 10 µM, first compound 0.00316 µM): 94.7% | viability, T/C (second compound 10 µM, first compound 0.01 µM): 103% | viability, T/C (second compound 10 µM, first compound 0.0316 µM): 83.1% | viability, T/C (second compound 10 µM, first compound 0.1 µM): 91.6%

NS(=O)(=O)OCC1CC(n2ccc3c(NC4CCc5ccccc54)ncnc32)CC1O (stereo not given) + NC1CCC(NC2CC2c2ccccc2)CC1
IC50 (second compound 0.1 µM): 506 nM | IC50 (second compound 0.316 µM): 517 nM | IC50 (second compound 1 µM): 412 nM | IC50 (second compound 3.16 µM): 445 nM | IC50 (second compound 10 µM): 441 nM | viability, T/C [1]: 98.6% | viability, T/C [2]: 138% | viability, T/C [3]: 125% | viability, T/C [4]: 64.8% | viability, T/C [5]: 38.5% | viability, T/C [6]: 26.1% | viability, T/C [7]: 87.6% | viability, T/C [8]: 142% | viability, T/C [9]: 144% | viability, T/C [10]: 67.9% | viability, T/C [11]: 34.1% | viability, T/C [12]: 26.1% | viability, T/C [13]: 109% | viability, T/C [14]: 138% | viability, T/C [15]: 124% | viability, T/C [16]: 56.6% | viability, T/C [17]: 37.8% | viability, T/C [18]: 27.2% | viability, T/C [19]: 93.2% | viability, T/C [20]: 138% | viability, T/C [21]: 118% | viability, T/C [22]: 59.7% | viability, T/C [23]: 37.1% | viability, T/C [24]: 25.9% | viability, T/C [25]: 91.2% | viability, T/C [26]: 116% | viability, T/C [27]: 95.7% | viability, T/C [28]: 58.4% | viability, T/C [29]: 31.9% | viability, T/C [30]: 13.2%

O=C(C=Cc1cccc(S(=O)(=O)Nc2ccccc2)c1)NO + NC1CCC(NC2CC2c2ccccc2)CC1
IC50 (second compound 0.1 µM): 262 nM | IC50 (second compound 0.316 µM): 239 nM | IC50 (second compound 1 µM): 241 nM | IC50 (second compound 3.16 µM): 266 nM | IC50 (second compound 10 µM): 192 nM | viability, T/C [1]: 109% | viability, T/C [2]: 112% | viability, T/C [3]: 116% | viability, T/C [4]: 41.7% | viability, T/C [5]: 3.48% | viability, T/C [6]: 0.14% | viability, T/C [7]: 131% | viability, T/C [8]: 107% | viability, T/C [9]: 95.1% | viability, T/C [10]: 39.4% | viability, T/C [11]: 4.3% | viability, T/C [12]: 0.15% | viability, T/C [13]: 90.3% | viability, T/C [14]: 121% | viability, T/C [15]: 95.8% | viability, T/C [16]: 39.1% | viability, T/C [17]: 4.13% | viability, T/C [18]: 0.15% | viability, T/C [19]: 109% | viability, T/C [20]: 129% | viability, T/C [21]: 113% | viability, T/C [22]: 42.5% | viability, T/C [23]: 4.22% | viability, T/C [24]: 0.16% | viability, T/C [25]: 107% | viability, T/C [26]: 118% | viability, T/C [27]: 73% | viability, T/C [28]: 35.7% | viability, T/C [29]: 3.52% | viability, T/C [30]: 0.24%
